In patent US20210238257A1, “De Novo Formation of the Biliary System by Hepatocyte Transdifferentiation” (THE REGENTS OF THE UNIVERSITY OF CALIFORNIA, priority 2018, published 2021):

Test system: hepatocytes lacking RBPJ and HNF6
Experiment: In vitro conversion assay: 3D culture of hepatocyte spheroids in collagen gels
Assay type: cell-based, mouse
Details: 10 μM SB-431542 vs vehicle (DMSO)
Method: Genomic DNA was isolated from cells using QIAamp DNA Micro Kit or DNeasy Blood & Tissue Kit (Qiagen). RNA was extracted using Trizol Reagent (Thermo Fisher Scientific) and purified by isopropanol precipitation (cells in collagen gel) or purified using RNAeasy Mini Kit (Qiagen) (liver tissue). Reverse transcription was performed using qScript cDNA Supermix (Quanta Biosciences). qPCR was performed using SYBR green reagent (Thermo Fisher Scientific) in a ViiA 7 system (Thermo Fisher Scientific). Reactions were performed in triplicate, and expression was normalized to an Rbpj (genotyping) or Gapdh (Glyceraldehyde-3-phosphate Dehydrogenase; gene expression) reference and quantified using the ΔΔCt method.
In vitro 3D culture of hepatocytes to induce biliary conversion was carried out as previously reported^21 with the following modifications. Hepatocytes were isolated from 8-10-week-old Rbpj^f/f;Hnf6^f/f mice injected with 1×10^12 vgs of AAV8-Ttr-Cre 2 weeks prior to delete RBPJ and HNF6. Hepatocytes were isolated by 2-step collagenase perfusion followed by purification through a Percoll gradient, all in the absence of serum. Cells were grown on Primaria plates for 6 days to form spheroids. Spheroids were cultured in collagen gels (Cultrex Rat Collagen I, Lower Viscosity, Trevigen) in the presence of 10 μM SB-431542 (Selleckchem) or vehicle (DMSO). The medium was changed every other day.

NC(=O)c1ccc(-c2nc(-c3ccc4c(c3)OCO4)c(-c3ccccn3)[nH]2)cc1 [SB-431542]
biliary differentiation and morphogenesis of hepatocytes: blocks biliary differentiation and morphogenesis
